Data on two compounds can be found in patent publication US10054581B1, “Inhibitors of notch signaling pathway and use thereof in treatment of cancers” (Ecole Polytechnique Federale de Lausanne (EPFL), priority 2011, dated 2018).

Assay [1] deals with Notch signalling via DL4:N1 ligand-receptor pair (Notch1). As to the kind of experiment: DL4:N1 coculture assay, Notch driven luciferase reporter. The class given is cell-based, mouse. To be noted: for DL4:N1 (Notch1) driven pathway activation: 10 μM, 24 hours. An excerpt:
Mouse DL4-IRES dsRED cDNA was cloned into a pENTR1 vector (Invitrogen®) and finally shuttled into a destination lentivirus vector using Gateway cloning strategy (Invitrogen). A Phosphoglycerate kinase (PGK) promoter drove the expression of DL4 protein. DL4-lentiviral particles were produced in 293T cells by cotransfection of DL4-lentivirus vector, Gag/pol expression plasmid and plasmid encoding for viral envelope proteins. To overexpress Notch1 protein, mouse full length Notch1 cDNA was a cloned in a pCDNA3.1-IRES-puromycin vector. Notch1 cDNA was cloned upstream of IRES-puromycin between HindIII and XbaI restriction sites. A CMV promoter controlled the expression of Notch1 protein.
(§1) To measure the Notch signalling activation, CSL/RBP-jk consensus DNA binding sequences were cloned in a head to tail conformation in the pGL4 luciferase vector (Promega), thus named 12×CSL/RBP-jjk luciferase vector. In order to determine the Notch pathway activation in chemical compound screening assay, 12×CSL/RBP-jk consensus DNA binding sequences were cloned into pGL4.26.luciferase vector (Promega). As an internal control for transfection efficiency, SV40 Renilla vector was used (Promega).
In order to generate DL4 and N1 stable cell lines, HeLa cell were bought from ATCC (catalog # CCL-2). To generate DL4 stable lines, cells were transduced with DL4-lentiviral particles. DL4 stable clones were selected using puromycin. High DL4 expressing clones were sorted using antibodies against DL4 with Fluorescence activated cell sorting (FACS). To generate N1 stable line, cell were transfected with a pCDNA3.1+(Invitrogen) plasmid containing mouse full length Notch1 under the control of CMV promoter. To select for Notch1 expressing clones, an IRES puromycin cassette was cloned downstream of Notch1 cDNA. HeLa cells expressing high levels of Notch1 were enriched by FACS using anti-Notch1 antibodies. DL4- and N1-HeLa cells were cultured in DMEM (GIBCO, Invitrogen), 10% FCS and 10 ug/ml of puromycin (Sigma).
For chemical library screen, the coculture assay was performed as follows. N1-HeLa cells were cotransfected in 10 cm tissue culture dishes with 16 μg of pGL4.26. 12×CSL.luciferase vector/plate, 4 μg of Notch1 expression plasmid/plate, and 200 ng of SV40 Renilla vector/plate. DL4- and N1-HeLa cells were detached from the plate by using 0.5 mM EDTA (1×PBS). The both cell populations were counted and mixed in 1:1 ratio (5,000:5,000 cells/well in a 384 well plate) and dispensed into 384 well plates (white, clear bottom, Corning) using multidrop Combi plate dispenser. The assay plates were pre-dispensed (using automated Biomek 3000 liquid handler) with chemical compound libraries (Microsource NIMDS, Maybridge Hitfinder and Prestwick) to give a final concentration of 10 μM. The final assay volume was 22 μls. Twenty-four hours later, growth media was aspirated and cells were lysed with 1× Passive lysis buffer for 10 minutes at room temperature. Luciferase activity was measured using Luciferase Assay Reagent II and Renilla values were determined by using Stop and Glow reagent (Dual luciferase assay system, Cat #E1980, Promega). Luciferase and renilla readouts were taken using Tecan® F500 (Tecan) multiplate reader. All the liquid handling steps (aspiration of the medium, dispensing of Passive lysis buffer, Luciferase Assay Reagent II and Stop and Glow reagents) were performed using ELF406 liquid handler.
In order to identify novel modulators of the Notch pathway, Applicants have established a coculture assay in which DL4 ligand expressing HeLa cells were cultured with N1 HeLa cells, thereby activating the Notch pathway. The use of a DL4 and N1 HeLa cell coculture system mimics physiological conditions of cell-cell communication between ligand and receptor expressing cells. The in vitro generation of a controlled receptor-ligand assay system allowed Applicants to modify and monitor the Notch signal intensity by γ-secretase inhibitors. […]

For assay [2] the test system is unchanged. The description is as above. The class given is cell-based, mouse. To be noted: 24 hours; for Notch signalling activation (Notch driven luciferase), concentration dependence: 2, 5 and 10 μM.
For assay [3], the system named is Notch-independent RAJI cells. Put plainly: Alamar blue proliferation assay, RAJI. The class given is cell-based. The settings on record: control line with no known Notch mutations. The protocol: (§2) Alamarblue® proliferation assays were performed to determine the growth kinetics of Notch inhibitor treated cells. Alamar Blue® consists of a cell permeable substrate resazurin. In metabolically active and proliferating cells, resazurin is converted to resorufin due to an intrinsic reducing power of live cells and produces a red fluorescence. Therefore production of resorufin serves as an indicator of the viability of the cell population.
Proliferation assays were performed by seeding 5000 cells/well in a 96 well plate. Cells were treated with DMSO or Notch inhibitors for different time intervals. Each treatment for every time interval was carried out in 8 replicates. To determine the growth kinetics, 10 μl of Alamar Blue® (Invitrogen) was added to each well and incubated for 4 hours. Alamarblue readout was taken using Tecan F500 (Tecan) multiplate reader.
As treatment of the human T-ALL cell lines and PANC1 pancreatic cancer cell line with 6-(4-Tert-Butylphenoxy)Pyridin-3-Amine (I3) induced a downregulation of Notch signalling, Applicants questioned whether this inhibition of the pathway translates into growth arrest in cancer cells. To this end, RPMI 8402, KOPTK1, PANC1 and nRas driven melanoma cell lines were grown in the presence or absence of 6-(4-Tert-Butylphenoxy)Pyridin-3-Amine (I3) for several days and their proliferative index was measured using the Alamar blue assay. […]

Assay [4] relates to HCC1187 human breast cancer cell line. Put plainly: Alamar blue proliferation assay, HCC1187. The class given is cell-based. The settings on record: 6 days. As to the method: FIGS. 5A-5E show 6-(4-Tert-Butylphenoxy)Pyridin-3-Amine (I3) blocks NICD dependent growth of human cancer cells. […] Western blot analyses were carried out for Hes1 protein using Hes1 specific antibodies. […] Growth kinetics of the parental cell line was followed over 5 days using Alamar blue readout. […] This mutation renders this cell line insensitive to γ-secretase inhibitor treatment. […] The cells were treated with DMSO, γ-secretase inhibitor DAPT and I3 for 6 days. Alamar blue readout was taken at day 0, day 2, day 4 and day 6. Eight replicates were used for each treatment and time point. […] P values were calculated using Student's t.test. *=p value<0.05. ns=not significant.
as §2
Proliferation assays were performed by seeding 5000 cells/well in a 96 well plate. Cells were treated with DMSO or Notch inhibitors for different time intervals. […] Alamarblue readout was taken using Tecan F500 (Tecan) multiplate reader. […]

In assay [5] the test system is Notch1-intracellular domain (NICD) mediated Notch signalling. As to the kind of experiment: NICD transfected HeLa cells, 12×CSL luciferase reporter. In kind it is cell-based. To be noted: HeLa cells transfected with NICD; I3 2-40 μM, DAPT 5-40 μM.
Excerpt: as §1
NICD-GFP overexpression studies were performed using pEGFP-C1-NICD expression plasmid. The FLAG-CMV2 plasmid expressing MAML1-FLAG was a kind gift from Dr. Lizi Wu, Harvard Medical School, Boston.
The transfected cells were treated with an increasing concentration of I3 and DAPT.

“Also recorded” adds a separate entry of the source.

Consider `C[C@H](NC(=O)Cc1cc(F)cc(F)c1)C(=O)N[C@H](C(=O)OC(C)(C)C)c1ccccc1` [DAPT, N—[N-(3,5-difluorophenacetyl-Lalanyl)]-(S)-phenylglycine t-butyl ester, reference compound], for which the “downregulation of Notch signalling activation” value in assay [1] (10 μM DAPT vs DMSO, 384 well plate) is reported as 10 fold. For the same compound, the “DL4:N1 (Notch1) driven pathway activation” value in assay [1] is “block Notch1 and Notch2 induced pathway activation”. In assay [2], the “Notch signalling activation (Notch driven luciferase), concentration dependence” value is reported as “causes a concentration dependent decrease in Notch signalling activation”. The proliferation entry in assay [3] is reported as “neither DAPT nor 6-(4-Tert-Butylphenoxy)Pyridin-3-Amine (I3) had any effect on the proliferation”. Besides, the “proliferation (Alamar blue)” value in assay [4] is reported as “did not inhibit proliferation; also recorded: did not alter the growth kinetics”. The “NICD mediated Notch signalling activation” value in assay [5] was “had no effect on the signalling activation; also recorded: had no effect on Notch signalling activation mediated by NICD”.
On to `CC(C)(C)c1ccc(Oc2ccc(N)cn2)cc1` [I3, 6-(4-Tert-Butylphenoxy)Pyridin-3-Amine], for which the “DL4:N1 (Notch1) driven pathway activation” value in assay [1] is “caused an inhibition of Notch signalling via both DL4:N1 and DL4:N2 ligand-receptor pairs; also recorded: block Notch1 and Notch2 induced pathway activation”. In addition, the “Notch signalling activation (Notch driven luciferase), concentration dependence” value in assay [2] was “blocks Notch signalling in a concentration dependent manner; also recorded: causes a concentration dependent decrease in Notch signalling activation”. The “IC50 value, Notch signalling in DL4:N1 coculture assay” value in assay [2] (increasing concentration 2-10 μM) is “in the lower μM range”. Besides, in assay [3], the proliferation entry is given as “neither DAPT nor 6-(4-Tert-Butylphenoxy)Pyridin-3-Amine (I3) had any effect on the proliferation”. For the same compound, in assay [4], the “proliferation (Alamar blue)” value was “significantly induced a proliferation block; also recorded: caused statistically significant inhibition of cell proliferation”. In assay [5], the “NICD mediated Notch signalling activation” value is “could block pathway activation in a dose-dependent manner; also recorded: could also block pathway activation by Notch1-intracellular domain (NICD) and Notch2-intracellular domain (N2-ICD); also recorded: led to an attenuation of the signalling; also recorded: inhibits pathway activation via intracellular domains of Notch1 (NICD) and Notch2 (N2-ICD); also recorded: found to block NICD mediated pathway activation”.
